Reference: patent publication US12144856B2 (priority 2019, dated 2024)

Key:
influenza vaccine [1] = conditions: older adults, cited from earlier work
[2] = test system: 2009 pandemic influenza A(H1N1) virus and avian influenza virus A(H7N9); conditions: cited from earlier work
influenza vaccine [3] = conditions: young adults; topical imiquimod vs sham aqueous cream; cited from earlier work
[4] = test system: split-virion seasonal influenza vaccine; assay: Antibody titers after influenza vaccination with or without intraperitoneal miltefosine (FIG. 1); format: in vivo, mice
Source text: FIG. 1: FIG. 1 depicts antibody titers measured 14 days after vaccination with or without miltefosine. A second dose of vaccine was provided on day 14. Circles indicate data from the miltefosine+vaccine treatment group; squares indicate data from the vaccine only treatment group; triangles indicate data from the miltefosine only treatment group; inverted triangles indicate data from a saline-treated control group.
Miltefosine is an FDA-approved anti-parasitic drug that is used in the treatment of Leishmaniasis. The immunomodulating effects of miltefosine include being an agonist of TLR4 and TLR9 (Das S, Rani M, Pandey K, Sahoo G C, Rabidas V N, Singh D, et al. Combination of paromomycin and miltefosine promotes TLR4-dependent induction of antileishmanial immune response in vitro. J Antimicrob Chemother 2012; 67:2373-8; Mukherjee A K, Gupta G, Adhikari A, Majumder S, Kar Mahapatra S, Bhattacharyya Majumdar S, et al. Miltefosine triggers a strong proinflammatory cytokine response during visceral leishmaniasis: role of TLR4 and TLR9. Int Immunopharmacol 2012; 12:565-72), enhancing IFN-γ receptor (Wadhone P, Maiti M, Agarwal R, Kamat V, Martin S, Saha B. Miltefosine promotes IFN-gamma-dominated anti-leishmanial immune response. J Immunol 2009; 182:7146-54), promoting IL12-dependent TH1 response (Wadhone P, Maiti M, Agarwal R, Kamat V, Martin S, Saha B. Miltefosine promotes IFN-gamma-dominated anti-leishmanial immune response. J Immunol 2009; 182:7146-54), and inhibiting PI3K-Akt pathway (Lucas A, Kim Y, Rivera-Pabon O, Chae S, Kim D H, Kim B. Targeting the PI3K/Akt cell survival pathway to induce cell death of HIV-1 infected macrophages with alkylphospholipid compounds. PLoS One 2010; 5). Topical formulation of miltefosine has been evaluated in the treatment of breast carcinoma (Clive S, Gardiner J, Leonard R C. Miltefosine as a topical treatment for cutaneous metastases in breast carcinoma. Cancer Chemother Pharmacol 1999; 44 Suppl:S29-30). […] It was also noted that both IgG1 and IgG2a responses were enhanced by the use of miltefosine in combination with intradermal vaccination.

influenza infection [5] = assay: Post-infection antibody, hemagglutination and microneutralization titers of mice vaccinated with or without miltefosine (FIG. 3); format: in vivo; conditions: intraperitoneal miltefosine + vaccine vs vaccine only
Source text: Circles indicate data from the miltefosine+vaccine treatment group; squares indicate data from the vaccine only treatment group; triangles indicate data from the miltefosine only treatment group; inverted triangles indicate data from a saline-treated control group.
In FIG. 3 circles indicate data from the miltefosine+vaccine treatment group, squares indicate data from the vaccine only treatment group, triangles indicate data from the miltefosine only treatment group, and inverted triangles indicate data from a saline-treated control group.

influenza infection [6] = assay: Survival of mice infected 3 or 7 days after a single influenza vaccination with or without miltefosine (FIGS. 2A, 2B); format: in vivo; conditions: intraperitoneal miltefosine adjuvant + vaccine vs vaccine without adjuvant; infected 3 or 7 days after vaccination
Experimental: FIGS. 2A and 2B: FIG. 2A depicts survival rates of infected mice that were vaccinated with or without miltefosine 3 days prior to infection. Data from treatment with 0.2 mg miltefosine+vaccine is represented by a combination a circle and a solid line. Data from treatment with 0.008 mg miltefosine+vaccine is represented by a combination of a rhombus and a dashed line. Data from treatment with 0.2 mg miltefosine only is represented by a dash/dot line. Data from treatment with vaccine only is represented by a combination of a square and a solid line. Data from treatment with a saline control is represented by a dotted line. FIG. 2B depicts survival rates of infected mice that were vaccinated with (circle/dashed line, rhombus/dashed line, or black) or without (square/solid line) miltefosine 7 days prior to infection. Data from treatment with 1 mg miltefosine+vaccine is represented by a combination a triangle and a solid line. Data from treatment with 0.2 mg miltefosine+vaccine is represented by a combination a circle and a solid line. Data from treatment with 0.008 mg miltefosine+vaccine is represented by a combination of a rhombus and a dashed line. Data from treatment with 0.2 mg miltefosine only is represented by a dash/dot line. Data from treatment with vaccine only is represented by a combination of a square and a solid line. […]

[7] = miltefosine + vaccine vs vaccine only, 14 days after vaccination

Work on CCCCC/C=C\C/C=C\C/C=C\C/C=C\CCCC(=O)N[C@H](C)CO [(R)-methanandamide] yielded a CC50 (in vitro) of over 60 µM.

For CC(C)Cn1cnc2c(N)nc3ccccc3c21 [imiquimod], the Antibody response (influenza vaccine [1]; topical imiquimod vs sham aqueous cream before intradermal vaccine) is listed as “more rapid and robust”, the “Rate of hospitalization and pneumonia” value (influenza vaccine [1]; topical imiquimod vs sham aqueous cream) is listed as “significantly lower” and the “Death during lethal challenge” value ([2]; 2009 pandemic A(H1N1) and A(H7N9) lethal challenge) is listed as “reduction”. The “Immunogenicity of the influenza vaccine” value ([2]; mouse model) was “accelerate and augment” and the “Antibody responses for homologous virus” value (influenza vaccine [3]) was “faster and more robust”.

With CCCCCCCCCCCCCCCCOP(=O)([O-])OCC[N+](C)(C)C [miltefosine] the Hemagglutination titer [4, 7] was “improved”, the Microneutralization titer [4, 7] was “improved” and the IgG titer ([4]; miltefosine in combination with influenza vaccination vs vaccine only, two weeks post-immunization) was “significantly increased”. The “IgG1 and IgG2a responses” value ([4]; miltefosine in combination with vaccination) was “enhanced”, the IgG1/IgG2 ratio (influenza infection [5]) was “greater” and the HAI titer (influenza infection [5]; 4 days post-infection) was “significantly higher”. For the same compound, the MN titer (influenza infection [5]; 4 days post-infection) was “significantly higher” and the Survival (influenza infection [6]) was “significantly improved”.
